Reference: US20230257366A1, “SULFUR-CONTAINING ISOINDOLINE DERIVATIVE, AND PREPARATION METHOD THEREFOR AND MEDICAL USE THEREOF” (JIANGSU HENGRUI PHARMACEUTICALS CO., LTD., priority 2020, published 2023)

Columns and labels:
[1] = Plasma stability in monkey plasma (LC-MS/MS); assay type: in vitro ADME; settings: cryopreserved monkey plasma; monkey plasma, 37° C., 1 μM; read-out: T1/2 (min)/monkey
Procedure: The stability of the compound of Example 6 and the control example CC-92480 after incubation in cryopreserved monkey plasma at 37° C. for 0 min, 15 min, 30 min, 60 min, 120 min, 180 min and 240 min was determined quantitatively by LC-MS/MS.
Compound of Example 6 and control example CC-92480.
Monkey plasma was purchased from Shanghai Medicilon Inc.
A certain amount of the compound of Example 6 was weighed and prepared with DMSO to obtain a 30 mM stock solution. A certain volume of the stock solution was diluted into a solution I at a concentration of 1600 μM with DMSO; and a certain volume of the solution I at 1600 μM was diluted with 50% methanol to obtain a working solution II at a concentration of 16 μM. A 30 mM stock solution, a 1600 μM solution I′, and a 16 μM working solution II′ of CC-92480 were prepared as described above.
5 μL of the working solutions at 16 μM of the compound of Example 6 and the control example CC-92480 were each added to 75 μL of plasma to make the final concentration of the compounds of 1 μM. The samples were incubated under a 37° C. water bath for 0 min, 15 min, 30 min, 60 min, 90 min, 120 min, and 180 min. […] The supernatant was analyzed by LC-MS with a sample injection volume of 2 μL.

NCI-H929 xenograft tumor = experiment: Pharmacodynamic test: NCI-H929 xenograft tumor in CB-17 SCID mice; assay type: in vivo
Procedure: This experiment was performed to evaluate the inhibition effect of the compound of Example 6 and the control example CC-92480 on the growth of human multiple myeloma cell NCI-H929 xenograft tumor in CB-17 SCID mice.
Compound of Example 6; control example CC-92480 (see compound 2 of WO2019014100A1, synthesized according to the method disclosed therein)
Solutions of the compound of Example 6 and the control example CC-92480 were prepared with 5% DMSO+20% PEG400+70% (10% TPGS)+5% (1% HPMC K100LV).
Thirty CB-17 SCID female mice, purchased from Beijing Vital River Laboratory Animal Technology Co., Ltd. (certificate No. 20170011006049, SCXK (Shanghai) 2017-0011), weighing about 19 g at the time of purchase, were bred at 5 mice/cage (in 12/12 hour light/dark cycle, at a constant temperature of 23±1° C. and humidity of 50%-60%) and had free access to food and water.
After adaptive feeding, the CB-17 SCID mice were grouped as follows:
NCI-H929 cells in a logarithmic growth phase were inoculated subcutaneously into the right flank of 30 female CB-17 SCID mice at 5×10^6 cells/mouse/100 μL (containing 50 μL of Matrigel). After 10 days, when the tumor volume of the tumor-bearing mice reached about 200 mm^3, the mice were randomly divided into 3 groups according to the tumor volume and body weight: vehicle control group, CC-92480-1 mpk, compound of Example 6-1 mpk, with 7 mice in each group. The day of grouping was set as Day 0 (D0), and intragastric administration was performed once a day for 11 days (Table 2). For the tumor-bearing mice, the tumor volume was measured with a vernier caliper and the body weight was measured with a balance twice a week, and the data were recorded.
All data were plotted and statistically analyzed using Excel and GraphPad Prism 5 software.
The tumor volume (V) was calculated as follows: V=½×a×b^2, where a and b represent length and width, respectively.
The relative tumor proliferation rate T/C (%)=(T−T0)/(C−C0)×100(%), where T and C are the tumor volume of animals at the end of the experiment in the treatment group and control group, respectively; T0 and C0 are the tumor volume of animals at the beginning of the experiment in the treatment group and control group, respectively.
Tumor growth inhibition TGI (%)=1−T/C (%), and when TGI (%) exceeds 100%, no specific value will be shown, and it is expressed only by >100%.
Tumor regression (%)=[(T0−T)/T0]×100(%).

NCI-H929 cells = experiment: NCI-H929 proliferation experiment (CellTiter-Glo, 5 days); assay type: cell-based; settings: Homo sapiens, 120 h, 5 days incubation, read-out: IC50 values for the inhibition of proliferation of NCI-H929 cells
Procedure: The following method was used to determine the inhibitory activity of the compounds of the present disclosure on the proliferation of NCI-H929 cells. The experimental method was briefly described as follows.
NCI-H929 cells (ATCC, CRL-9068) were cultured in a complete medium (RPMI 1640 medium (Hyclone, SH30809.01) containing 10% fetal bovine serum (Corning, 35-076-CV) and 0.05 mM 2-mercaptoethanol (Sigma, M3148)). On the first day of the experiment, NCI-H929 cells were seeded in a 96-well plate at a density of 6000 cells/well with a complete medium to form 100 μL of cell suspension per well, and 10 μL of test compound prepared in a complete medium and diluted in a gradient was added to each well. The compound was firstly dissolved in DMSO, with an initial concentration of 10 mM, and then subjected to serial dilution at a 5-fold concentration gradient for a total of 9 concentration points, with a blank control of 100% DMSO. Another 5 μL of the compound dissolved in DMSO was added to 95 μL of complete medium, i.e., the compound was diluted 20-fold with the complete medium. Finally the compound diluted in the complete medium at 10 μL/well was added to the cell suspension, wherein the final concentrations of the compound were 9 concentration points obtained by 5-fold gradient dilution starting from 50 μM. A blank control containing 0.5% DMSO was set. The plate was incubated in a cell incubator at 37° C. with 5% CO2 for 5 days. On the sixth day, the 96-well cell culture plate was taken out, added with a CellTiter-Glo® luminescent cell activity detect reagent (Promega, G7573) at 50 μL/well, left to stand at room temperature for 10 min, and read for the luminescence signal values using a multi-mode microplate reader (PerkinElmer, EnVision 2015). IC50 values for the inhibitory activity of the compounds were calculated using Graphpad Prism software, with the results shown in Table 1.

N#Cc1ccc(N2CCC(Sc3ccc(COc4cccc5c4CN([C@H]4CCC(=O)NC4=O)C5=O)cn3)CC2)c(F)c1 [Compound 6, (S)-4-(4-((5-(((2-(2,6-dioxopiperidin-3-yl)-1-oxoisoindolin-4-yl)oxy)methyl)pyridin-2-yl)thio)piperidin-1-yl)-3-fluorobenzonitrile]
half-life at 1 µM [1]: 806 min | tumor inhibition rate (TGI) (NCI-H929 xenograft tumor; 1 mg/kg qd, 11 days after administration): > 100% | Mean tumor volume D0 (NCI-H929 xenograft tumor; 1 mg/kg qd, baseline at day of grouping (D0), n=7): 155.4 mm^3 | Number of remaining animals/group (NCI-H929 xenograft tumor; 1 mg/kg qd/11d po): 7/7 | % tumor regression D11 (NCI-H929 xenograft tumor; 1 mg/kg qd/11d po (i.g.), D11): 88% | Mean tumor volume D11 (NCI-H929 xenograft tumor; 1 mg/kg qd/11d po (i.g.), D11, n=7): 18.6 mm^3 | IC50 (NCI-H929 cells): 0.02 nM
